Data reported in patent US6284758A, “Angiogenesis promoters and angiogenesis potentiators” (priority 1997, dated 2001).

Tests used:
[1] = tested on: rat sponge model (angiogenesis); experiment: Angiogenesis promotion by compound A in rat sponge model (embedded gelatin sponge; hemoglobin in sponge and photograph); assay type: in vivo
Procedure: Rats were anesthetized by intraperitoneal administration of sodium pentobarbital (50 mg/kg), and the dorsal median line was incised for about 1 cm and an air pocket was made subcutaneously at about 2.5 cm toward the tail side with a Kocher clamp. A hemostatic gelatin sponge (Spongel®, 10 mm×10 mm×7 mm; manufactured by Yamanouchi Pharmaceutical Co., Ltd.) impregnated with physiological saline was embedded therein. The opening was sutured and antisepticized to give a test animal model.
As a reagent, compound A (4-bromo-6-[3-(4-chlorophenyl)-propoxy]-5-(3-pyridylmethylamino)-3-(2H)-pyridazinone hydrochloride, 100 mg) produced by a conventional method was suspended in 0.5% methylcellulose solution (100 ml) in a mortar and used.
As a control, a vehicle (0.5% methylcellulose solution) was used. The vehicle was obtained by dissolving methylcellulose (5 g, manufactured by Kishida Chemical Industries, Ltd.) in distilled water (1000 ml).
The reagent (compound A) and the vehicle were orally administered repeatedly from the day of sponge embedding at a dose of 10 ml/kg once a day for 4 days or 7 days. The administration was performed 30 minutes before anesthetizing the animal on the very day of embedding, and the sponge was removed on the next day of the final administration.
After 4 days or 7 days from the embedding, an excess amount of pentobarbitalwas intravenously injected to the animals for euthanasia. The back was opened, and the tissue surrounding the embedded sponge was removed and the surface of the sponge was photographed. The sponge was taken out and placed in a 0.1M aqueous ammonia (2 ml), which was stood for 4 hr to extract hemoglobin in the sponge. The extract (100 μl) was taken, and hemoglobin was quantitated using an assay kit (hemoglobin B-TESTWAKO; manufactured by Wako Pure Chemical Industries, Ltd.) and used as the index of angiogenesis. The amount of hemoglobin in the sponge was calculated by the following formula.
Amount of hemoglobin in sponge (mg/sponge)=hemoglobin (mg) in extract (100
μl)×20 (total extract 2 ml)
The obtained data were expressed in mean±standard error. For the evaluation of the angiogenic effect, an unpaired t-test was performed using the animals administered with the drug for 4 days or 7 days and respective vehicle groups as control to examine significant difference. The significance was ascribed at less than 5% risk rate.

[2] = tested on: rat sponge model (angiogenic effect of b-FGF); experiment: Potentiation of angiogenic effect of b-FGF by compound A in rat sponge model (b-FGF 1 μg/sponge); assay type: in vivo; settings: for Hemoglobin in sponge at 4 days after embedding: mean±standard error, number of animals 10
Procedure: (§1) The test animal models were prepared in the same manner as in Experimental Example 1.
As a reagent, compound A (4-bromo-6-[3-(4-chlorophenyl)-propoxy]-5-(3-pyridylmethylamino)-3-(2H)-pyridazinone hydrochloride, 50 mg) produced by a conventional method was suspended in 0.5% methylcellulose solution (100 ml) in a mortar and used.
The vehicle (0.5% methylcellulose solution) was obtained by dissolving methylcellulose (5 g, manufactured by Kishida Chemical Industries, Ltd.) in distilled water (1000 ml).
A 0.1% bovine serum albumin (BSA)-physiological saline solution was prepared by dissolving BSA (0.1 g, Sigma) in physiological saline (100 Ml).
A b-FGF solution was prepared by dissolving recombinant b-FGF (20 μg, manufactured by BTI) in 0.1% BSA-physiological saline solution (2 ml).
A hemostatic gelatin sponge was the same as that used in Experimental Example 1.
The test group was divided into 3 groups. A sponge wetted with 100 μl of 0.1% BSA-physiological saline solution was embedded in group 1. A sponge (1 μg b-FGF/sponge) wetted with b-FGF solution (100 μl) was embedded in group 2 and group 3.
The vehicle was orally administered to group 1 and group 2, and the reagent (compound A) was orally administered to group 3 repeatedly from the day of sponge embedding at the dose of 10 ml/kg twice a day for 4 days.
In every test group, the administration began from the evening (single administration) of the very day of embedding. The time of administration of the drug was around 9 a.m. for the first administration and around 7 p.m. for the second administration. In consideration of the effect of the drug, the drug was not administered on the very day of sponge removal (7 times of administration in total).
After 4 days from the embedding, an excess amount of pentobarbital was intravenously injected to the animals for euthanasia. The back was opened, and the tissue surrounding the embedded sponge was removed and the surface of the sponge was photographed. The sponge was taken out and hemoglobin in the sponge was calculated in the same manner as in Experimental Example 1.
The obtained data were expressed in mean±standard error. For the evaluation of the angiogenic effect, a multiple comparison test by Tukey method was performed to examine significant difference. The significance was ascribed at less than 5% risk rate.

[3] = tested on: rat sponge model (angiogenesis); experiment: Relationship between dose and angiogenesis promotion by compound A in rat sponge model; assay type: in vivo; settings: for Hemoglobin amount in sponge vs vehicle (in words): 7 times in total, Dunnett test
Procedure: as §1
As a reagent, compound A (4-bromo-6-[3-(4-chlorophenyl)-propoxy]-5-(3-pyridylmethylamino)-3-(2H)-pyridazinone hydrochloride, 35 mg) produced by a conventional method was suspended in 0.5% methylcellulose solution (70 ml) in a mortar and used as a 5 mg/kg administration reagent.
This suspension was diluted two-fold and 5-fold with a vehicle (0.5% methylcellulose solution) to give 2.5 mg/kg administration reagent and 1 mg/kg administration reagent (respective dose 10 ml/kg). The vehicle (0.5% methylcellulose solution) was used as a control. The vehicle was obtained by dissolving methylcellulose (5 g, manufactured by Kishida Chemical Industries, Ltd.) in distilled water (1000 ml).
Each reagent (compound A) and the vehicle were orally administered repeatedly (7 times in total) from the day of sponge embedding at a dose of 10 ml/kg twice a day for 4 days. The sponge was removed on the next day of the final administration, and hemoglobin in the sponge was calculated in the same manner as Experimental in Example 1.
Each group contained […] animals and the obtained data were expressed in mean±standard error. For the evaluation of the angiogenic effect, a Dunnett test was performed using the vehicle administration group as a control to examine significant difference. The significance was ascribed at less than 5% risk rate.

[4] = Hypotensive action in rat; assay type: in vivo; settings: 5 mg/kg, based on vasodilating action
[5] = Acute toxicity, oral, rat; settings: in vivo, oral administration
[6] = Acute toxicity, oral, dog; settings: in vivo, oral administration
rat and dog = experiment: Acute toxicity, oral, rat and dog (overall finding); assay type: in vivo; settings: oral administration
[7] = day 4 and day 7, also seen with vehicle

Row | Compound | Time course of amount of hemoglobin in sponge (in words) [1, 7] | Time course of neovascularized blood vessels on the sponge surface (in words) [1, 7] | Amount of hemoglobin in sponge vs vehicle (in words) ([1]; day 7 of the test) | Observation of photograph: neovascularized blood vessels on the sponge surface ([1]; day 7 of the test, vs vehicle administration group) | Hemoglobin in sponge, 4 days after embedding ([1]; oral, 10 ml/kg (100 mg/100 ml suspension) once a day for 4 days, mean±standard error, number of animals 10, vehicle 6.216 ± 0.903) | Hemoglobin in sponge, 7 days after embedding ([1]; oral, 10 ml/kg (100 mg/100 ml suspension) once a day for 7 days, mean±standard error, number of animals 9, vehicle 9.585 ± 0.774, **p < 0.01 relative to vehicle, unpaired t-test) | Observation of photograph: neovascularized blood vessels ([2]; day 4, group 3 (b-FGF and compound A, 5 mg/kg, co-administration) vs group 2 (b-FGF alone)) | Hemoglobin content vs group 1 and group 2 (in words) ([2]; group 3 (b-FGF and compound A, 5 mg/kg, co-administration), day 4) | Hemoglobin in sponge at 4 days after embedding ([2]; group 3: compound A 5 mg/kg orally twice a day (7 times in total) plus b-FGF (1 μg/sponge) in sponge, p < 0.01 relative to group 1 and group 2 (Tukey method)) | Hemoglobin amount in sponge vs vehicle (in words) ([3]; 2.5 mg/kg orally twice a day) | Hemoglobin amount in sponge vs vehicle (in words) ([3]; 5 mg/kg orally twice a day) | Effect at 5 mg/kg on hemoglobin amount, tendency (in words) ([3]; 5 mg/kg, postulated due to decrease in blood flow from hypotensive action) | Angiogenesis promotion effect at a dose substantially free from hypotensive action (in words) ([3]; rat) | Hypotensive action [4] | LD50 [5] | LD50 [6] | Toxicity (in words) (rat and dog) | Observation of photograph: neovascularized blood vessels ([2]; day 4, group 2 (b-FGF single administration) vs group 1 (BSA-physiological saline)) | Hemoglobin in sponge at 4 days after embedding ([2]; group 2: b-FGF (1 μg/sponge) in sponge, vehicle orally, group 1 (BSA-saline) 5.503 ± 0.562)
1 | Cl.O=c1[nH]nc(OCCCc2ccc(Cl)cc2)c(NCc2cccnc2)c1Br [compound A, 4-bromo-6-[3-(4-chlorophenyl)-propoxy]-5-(3-pyridylmethylamino)-3-(2H)-pyridazinone hydrochloride] | showed an increase in the amount of hemoglobin in sponge at day 4 and day 7 of the test, in proportion to the number of days lapsed | showed an increase of neovascularized blood vessels on the sponge surface at day 4 and day 7 of the test in proportion to the number of days lapsed | showed a significant increase as compared to the vehicle administration group | showed more neovascularized blood vessels than in the vehicle administration group | 6.255 ± 0.807 mg/sponge | 16.351 ± 1.836 mg/sponge | showed still more neovascularized blood vessels than in group 2 | showed a significant increase in hemoglobin content as compared to group 1 (0.1% BSA-physiological saline solution group) and group 2 (b-FGF single administration group) | 14.995 ± 2.307 mg/sponge | showed a significant increase in hemoglobin amount | showed a significant increase in hemoglobin amount | the effect tended to weaken somewhat, though a significant difference was found | superior angiogenesis promotion effect at a dose substantially free from hypotensive action | causes hypotensive action in rat | ≥ 2000 mg/kg | ≥ 2000 mg/kg | extremely low toxic |  | 
2 | b-FGF: recombinant b-FGF (20 μg, manufactured by BTI); basic fibroblast growth factor |  |  |  |  |  |  |  |  |  |  |  |  |  |  |  |  |  | visually showed more neovascularized blood vessels than in group 1 | 7.285 mg/sponge
